Experiments:
B-16 melanoma cells = experiment: Evaluation of melanin production-inhibitory function (degree of whiteness of cultured cells); format: cell-based; conditions: for Evaluation of Melanin Production-Inhibition (degree of whiteness of cells): rank vs 450 ppm vitamin C-magnesium phosphate; for melanin production-inhibitory function relative to that observed for the positive control/standard: compared with 450 ppm of vitamin C-magnesium phosphate; for Evaluation of Melanin Production-Inhibition (degree of whiteness of cells): key: ++: The degree of whiteness is higher than that observed for the positive control; +: The degree of whiteness is almost identical to that of the positive control; ±: The degree of whiteness is not higher than that observed for the positive control, but higher than that observed for control; −: The degree of whiteness is almost identical to that observed for the control
Description: The melanin production-inhibitory function of the 5-membered ring-containing triterpenes incorporated into the foods or beverages and orally administered whitening agents of the present invention can be determined by a test method, which makes use of cultured melanocytes. The term “melanocyte(s)” used herein means cells having an ability of producing melanin and when cultivating these cells in the usual manner, the cells are blackened due to the accumulation of melanin pigment thus produced. Contrary to this, if a substance having such a melanin production-inhibitory function is incorporated into this cultivation system, the melanin production is suppressed and the skin is relatively whitened. The melanin production-inhibitory function can likewise be evaluated on the basis of this degree of relative whitening.
A culture medium (2 mL/well) was dispensed to a 6-well plate, a predetermined amount of B-16 melanoma cells was inoculated into the culture medium in each well and the cells were cultured at 37° C. and 5% CO2 by allowing the culture medium to stand. On the next day, a solution of test sample (each 5-membered ring-containing triterpene to be evaluated) having a predetermined concentration was added to and mixed with the culture medium and the cultivation was continued. On the 5th day from the initiation of the cultivation, the culture medium was exchanged and the test sample solution was again added to each well. On the next day, the culture medium was removed from each well to thus recover the cells, followed by washing the cells with PBS (phosphate-buffered physiological saline) and evaluation of the desired function based on the degree of whiteness of the cells. In this connection, the melanin production-inhibitory effect was evaluated by comparing the resulting degree of whiteness with that observed when 450 ppm of vitamin C-magnesium phosphate having a known effect was added instead of the test sample solution (positive control) and that observed when any test sample was not added (control) according to the following criteria.
The evaluation criteria for the degree of whiteness of cells are as follows: […]

[1] = system: deposition of melanin pigment on the skin induced by the UV light irradiation; experiment: Animal test for the confirmation of whitening effect (UV-induced skin pigmentation, test feed); format: in vivo, Brown guinea pigs; conditions: 4 weeks; for Evaluation Results CI: number of 7 animals ranked Conspicuous Imp.; for Evaluation Results MI: number of 7 animals ranked Medium Imp.; for Evaluation Results NC: number of 7 animals ranked No Change; for Evaluation Results SI: number of 7 animals ranked Slight Imp.
Description: More specifically, the whitening effect can be evaluated by removing a half of the hair on the back of each brown guinea pig, keeping these animals over 2 weeks while irradiating the hair-removed area with a UV lamp, dividing these guinea pigs into groups in such a manner that there is not any difference in the degree of the melanin pigmentation induced by the UN light irradiation, allowing the animals in each group to freely take a test food comprising a feed having a low vitamin C content to which a variety of triterpenes have been added and keeping these animals over additional 4 weeks to evaluate the degree of skin pigmentation while comparing the same with those observed for a control group and for a positive control group.
Brown guinea pigs (5-week-old male animals) were preliminarily kept for one week using a commercially available feed (CG-7 available from Nippon Kurea Company), a half of the hair on the back was removed and the hair-removed portion on the back was irradiated with light rays emitted from a UV lamp of 1.2 mW for 5 minutes on the 1st day and then with light rays emitted from a UV lamp of 1.0 mW for 5 minutes on the 2nd and 3rd days. Subsequently, these animals were kept over 2 weeks using a feed having a low vitamin C content (200.0 mg/kg feed), these guinea pigs were divided into 12 groups (comprising 7 animals each) in such a manner that there was not observed any difference in the degree of deposition of melanin pigment on the skin induced by the UV light irradiation between groups and then the animals were allowed to freely ingest each test feed comprising the feed having a low vitamin C content to which each triterpene had been added in an amount specified in the following Table 2. In this respect, however, the vitamin C-deficient feed per se was supplied to the control group and a vitamin C-supplemented feed was supplied to the positive control group. After 4 weeks from the supply of the test feed, the degree of the pigmentation of the skin was evaluated according to the following criteria.

[2] = 500.0 mg/kg feed, free ingestion
[3] = positive control group, 2500.0 mg/kg feed

Compound	Evaluation of Melanin Production-Inhibition (degree of whiteness of cells) (B-16 melanoma cells; Concentration 2 ppm)	Evaluation of Melanin Production-Inhibition (degree of whiteness of cells) (B-16 melanoma cells; Concentration 4 ppm)	Evaluation of Melanin Production-Inhibition (degree of whiteness of cells) (B-16 melanoma cells; Concentration 6 ppm)	Evaluation of Melanin Production-Inhibition (degree of whiteness of cells) (B-16 melanoma cells; Concentration 8 ppm)	Evaluation of Melanin Production-Inhibition (degree of whiteness of cells) (B-16 melanoma cells; Concentration 10 ppm)	melanin production-inhibitory function relative to that observed for the positive control/standard (B-16 melanoma cells)	Evaluation Results CI [1, 2]	Evaluation Results MI [1, 2]	Evaluation Results NC [1, 2]	Evaluation Results SI [1, 2]	Evaluation of Melanin Production-Inhibition (degree of whiteness of cells) (B-16 melanoma cells; Concentration 15 ppm)	Evaluation Results CI [1, 3]	Evaluation Results MI [1, 3]	Evaluation Results NC [1, 3]	Evaluation Results SI [1, 3]	Evaluation of Melanin Production-Inhibition (degree of whiteness of cells) (B-16 melanoma cells; Concentration 25 ppm)	Evaluation of Melanin Production-Inhibition (degree of whiteness of cells) (B-16 melanoma cells; Concentration 50 ppm)
C[C@H]1[C@H](C)CC[C@]2(C(=O)O)CC[C@]3(C)C(=CC[C@@H]4[C@@]5(C)CC[C@H](O)C(C)(C)[C@@H]5CC[C@]43C)[C@H]12 [Ursolic acid]	±	+	++	++	++	about 110 times	4	2	0	1							
CC(=O)O[C@@H]1C[C@]2(C)[C@H]3CC=C4[C@@H]5CC(C)(C)CC[C@]5(C(=O)O)CC[C@@]4(C)[C@]3(C)CC[C@H]2C(C)(C)[C@H]1OC(C)=O [Compound of Synthetic Example 2, 2,3-O-di-Acetyl-Maslinic Acid]	±	±	+	++	++	about 75 times	2	4	0	1	++						
O=C1O[C@H]([C@@H](O)CO)C(O)=C1O [L-Ascorbic acid, reference compound]												0	1	2	4		
CCOC(=O)[C@]12CCC(C)(C)C[C@H]1C1=CC[C@@H]3[C@@]4(C)C[C@@H](O)[C@H](O)C(C)(C)[C@@H]4CC[C@@]3(C)[C@]1(C)CC2 [Compound of Synthetic Example 1, Ethyl Maslinate]	±	+	++	++	++	about 110 times	2	3	1	1							
C=C(C)[C@@H]1CC[C@]2(C(=O)O)CC[C@]3(C)[C@H](CC[C@@H]4[C@@]5(C)CC[C@H](O)C(C)(C)[C@@H]5CC[C@]43C)[C@@H]12 [Betulinic acid]	−		±		+	about 20 times	2	4	0	1							
2,3-O-di-Triethylsilyl-Maslinic Acid Triethylsilyl Ester [Compound of Synthetic Example 3]	−		±		+	about 40 times										+	+
C=C(C)[C@@H]1CC[C@]2(COC(C)=O)CC[C@]3(C)[C@H](CC[C@@H]4[C@@]5(C)CC[C@H](OC(C)=O)C(C)(C)[C@@H]5CC[C@]43C)[C@@H]12 [Compound of Synthetic Example 9, 3,28-O-di-Acetyl-Betulin]	−		−		±	about 10 times										±	+

From patent US20040086553A1, “Foods and beverages for whitening and orally administered whitening agents” (The Nisshin OilliO, Ltd., priority 2000, published 2004)
